Data reported in the NIST ThermoML archive (doi:10.1016/j.jct.2011.10.009).
± gives the expanded uncertainty stated by the source.

Test: xn = mol fraction of the nth substance listed
Settings: 101 kPa, Liquid, Vibrating tube method

[2H]C(C)O (stereo not given) [ethanol-1-d] + [2H]O[2H]
mass density [kg/m3]
Settings | 278.15 K | 288.15 K | 298.15 K | 308.15 K | 318.15 K
x2 = 0.001004 | 819.11 ± 0.16 | 810.48 ± 0.16 | 801.72 ± 0.16 | 792.83 ± 0.17 | 783.78 ± 0.17
x2 = 0.00168 | 819.21 ± 0.19 | 810.58 ± 0.19 | 801.83 ± 0.2 | 792.94 ± 0.2 | 783.89 ± 0.2
x2 = 0.00308 | 819.43 ± 0.29 | 810.8 ± 0.29 | 802.05 ± 0.29 | 793.15 ± 0.28 | 784.1 ± 0.28
x2 = 0.005192 | 819.67 ± 0.45 | 811.12 ± 0.44 | 802.37 ± 0.44 | 793.47 ± 0.44 | 784.42 ± 0.43
x2 = 0.008159 | 820.22 ± 0.68 | 811.58 ± 0.68 | 802.83 ± 0.67 | 793.93 ± 0.66 | 784.87 ± 0.66
x2 = 0.01089 | 820.65 ± 0.91 | 812.01 ± 0.9 | 803.25 ± 0.89 | 794.34 ± 0.88 | 785.28 ± 0.87
x2 = 0.01426 | 821.17 ± 1.2 | 812.53 ± 1.2 | 803.76 ± 1.2 | 794.86 ± 1.1 | 785.79 ± 1.1
x2 = 0.0173 | 821.64 ± 1.4 | 813 ± 1.4 | 804.23 ± 1.4 | 795.32 ± 1.4 | 786.25 ± 1.4
x2 = 0.02028 | 822.1 ± 1.7 | 813.46 ± 1.7 | 804.69 ± 1.6 | 795.77 ± 1.6 | 786.7 ± 1.6
x2 = 0.02325 | 822.56 ± 1.9 | 813.91 ± 1.9 | 805.14 ± 1.9 | 796.22 ± 1.9 | 787.14 ± 1.8
x2 = 0.02639 | 823.05 ± 2.2 | 814.4 ± 2.2 | 805.62 ± 2.1 | 796.7 ± 2.1 | 787.61 ± 2.1
x2 = 0.03026 | 823.65 ± 2.5 | 814.99 ± 2.5 | 806.21 ± 2.4 | 797.28 ± 2.4 | 788.19 ± 2.4
x2 = 0.03472 | 824.23 ± 2.9 | 815.57 ± 2.8 | 806.78 ± 2.8 | 797.85 ± 2.8 | 788.76 ± 2.7
x2 = 0.03723 | 824.72 ± 3.1 | 816.06 ± 3 | 807.27 ± 3 | 798.33 ± 3 | 789.23 ± 2.9

CCO [ethanol] + O
mass density [kg/m3]
Settings | 278.15 K | 288.15 K | 298.15 K | 308.15 K | 318.15 K
x2 = 0.0009961 | 802.2 ± 0.14 | 793.72 ± 0.14 | 785.15 ± 0.14 | 776.47 ± 0.14 | 767.66 ± 0.15
x2 = 0.002144 | 802.34 ± 0.2 | 793.86 ± 0.2 | 785.29 ± 0.21 | 776.61 ± 0.21 | 767.79 ± 0.21
x2 = 0.004143 | 802.59 ± 0.35 | 794.1 ± 0.35 | 785.53 ± 0.35 | 776.85 ± 0.34 | 768.03 ± 0.34
x2 = 0.00674 | 802.91 ± 0.55 | 794.42 ± 0.55 | 785.85 ± 0.54 | 777.16 ± 0.54 | 768.34 ± 0.53
x2 = 0.009286 | 803.22 ± 0.75 | 794.73 ± 0.75 | 786.16 ± 0.74 | 777.47 ± 0.73 | 768.65 ± 0.72
x2 = 0.01189 | 803.54 ± 0.96 | 795.06 ± 0.95 | 786.48 ± 0.94 | 777.79 ± 0.93 | 768.96 ± 0.92
x2 = 0.01442 | 803.85 ± 1.2 | 795.37 ± 1.1 | 786.79 ± 1.1 | 778.09 ± 1.1 | 769.26 ± 1.1
x2 = 0.01794 | 804.29 ± 1.4 | 795.8 ± 1.4 | 787.22 ± 1.4 | 778.52 ± 1.4 | 769.69 ± 1.4
x2 = 0.02115 | 804.68 ± 1.7 | 796.2 ± 1.7 | 787.61 ± 1.7 | 778.92 ± 1.6 | 770.08 ± 1.6
x2 = 0.02506 | 805.17 ± 2 | 796.68 ± 2 | 788.1 ± 2 | 779.4 ± 2 | 770.56 ± 1.9
x2 = 0.0292 | 805.69 ± 2.4 | 797.2 ± 2.3 | 788.61 ± 2.3 | 779.91 ± 2.3 | 771.06 ± 2.2
x2 = 0.03125 | 805.94 ± 2.5 | 797.46 ± 2.5 | 788.87 ± 2.5 | 780.16 ± 2.4 | 771.31 ± 2.4
x2 = 0.0336 | 806.24 ± 2.7 | 797.75 ± 2.7 | 789.16 ± 2.6 | 780.45 ± 2.6 | 771.6 ± 2.6
x2 = 0.03661 | 806.61 ± 3 | 798.13 ± 2.9 | 789.54 ± 2.9 | 780.83 ± 2.9 | 771.97 ± 2.8
